Assay results: patent publication US20250388574A1, “HETEROCYCLIC COMPOUNDS AS TRIGGERING RECEPTOR EXPRESSED ON MYELOID CELLS 2 AGONISTS AND METHODS OF USE” (AMGEN INC., priority 2020, published 2025)
pEC50: −log10 of the molar value.

Target: hTREM2 (Homo sapiens, UniProt Q9NZC2)
Assay: Phospho-Syk AlphaScreen/AlphaLISA assay in TREM2 and DAP12 overexpressing HEK293 cells (Example A1)
Format: cell-based
Parameters: expressed in transfected cells
Settings: HEK293 cells; for pEC50: read-out: hTREM2 EC50
Outline: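 Single-cell-cloned HEK293 stably overexpressing TREM2 and DAP12, plated 20,000 cells/well for 20 h, then exposed to compounds (1% DMSO) 45 min at room temperature. Lysates probed for phospho-Syk by AlphaLISA sandwich (anti-pSyk, biotinylated anti-Syk); signal normalized to percent of control (100 nM anti-TREM2 antibody vs isotype) and fitted by 4-parameter logistic.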

Sequence of hTREM2 (Q9NZC2 19-230): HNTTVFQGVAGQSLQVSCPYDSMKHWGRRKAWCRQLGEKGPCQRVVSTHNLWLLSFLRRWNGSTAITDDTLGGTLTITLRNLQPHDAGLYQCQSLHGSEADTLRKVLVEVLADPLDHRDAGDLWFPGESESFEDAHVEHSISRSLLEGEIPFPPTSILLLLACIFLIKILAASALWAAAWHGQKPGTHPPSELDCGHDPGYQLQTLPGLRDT
Sequence of hTREM2 (O43914 22-113 partner): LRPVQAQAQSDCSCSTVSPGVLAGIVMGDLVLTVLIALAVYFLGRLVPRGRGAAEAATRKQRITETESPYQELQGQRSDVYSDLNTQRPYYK

Structure (SMILES)	Emax	pEC50
COc1cc([C@@H]2C[C@H](c3cc4nc(C)n(C)c(=O)c4c(-c4ccc(Cl)cc4F)n3)CCO2)ccn1 [Example 267, 5-(4-chloro-2-fluorophenyl)-7-((2S,4R)-2-(2-methoxypyridin-4-yl)tetrahydro-2H-pyran-4-yl)-2,3-dimethylpyrido[4,3-d]pyrimidin-4(3H)-one]	+++ (Emax>200 and ≤300)	> 7.30
COc1cc([C@@H]2C[C@@H](c3cc4nc(C)n(C)c(=O)c4c(-c4ccc(Cl)cc4F)n3)CCO2)ccn1 [Example 268, 5-(4-chloro-2-fluorophenyl)-7-((2S,4S)-2-(2-methoxypyridin-4-yl)tetrahydro-2H-pyran-4-yl)-2,3-dimethylpyrido[4,3-d]pyrimidin-4(3H)-one]	++++ (Emax>300)	6.30 to 7.30
Cc1ccc([C@@H]2C[C@@H](c3cc4nc(C)n(C)c(=O)c4c(-c4ccc(Cl)cc4F)n3)CCO2)cn1 [Example 272, 5-(4-chloro-2-fluorophenyl)-2,3-dimethyl-7-((2S,4S)-2-(6-methylpyridin-3-yl)tetrahydro-2H-pyran-4-yl)pyrido[4,3-d]pyrimidin-4(3H)-one]	++++ (Emax>300)	6.30 to 7.30
Cc1ccc([C@H]2C[C@@H](c3cc4nc(C)n(C)c(=O)c4c(-c4ccc(Cl)cc4F)n3)CCO2)cn1 [Example 273, 5-(4-chloro-2-fluorophenyl)-2,3-dimethyl-7-((2R,4S)-2-(6-methylpyridin-3-yl)tetrahydro-2H-pyran-4-yl)pyrido[4,3-d]pyrimidin-4(3H)-one]	++++ (Emax>300)	6.30 to 7.30
Cc1ccc([C@@H]2C[C@H](c3cc4nc(C)n(C)c(=O)c4c(-c4ccc(Cl)cc4F)n3)CCO2)cn1 [Example 274, 5-(4-chloro-2-fluorophenyl)-2,3-dimethyl-7-((2S,4R)-2-(6-methylpyridin-3-yl)tetrahydro-2H-pyran-4-yl)pyrido[4,3-d]pyrimidin-4(3H)-one]	++++ (Emax>300)	6.30 to 7.30
Cc1nc2cc([C@@H]3CCO[C@H](c4cnn(C)c4)C3)nc(-c3ccc(Cl)cc3F)c2c(=O)n1C [Example 275, 5-(4-chloro-2-fluorophenyl)-2,3-dimethyl-7-((2S,4R)-2-(1-methyl-1H-pyrazol-4-yl)tetrahydro-2H-pyran-4-yl)pyrido[4,3-d]pyrimidin-4(3H)-one]	++ (Emax>100 and ≤200)	> 7.30

Second part, the compound after the results:

Emax	pEC50	Structure (SMILES)
+++ (Emax>200 and ≤300)	> 7.30	Cc1nc2cc(N3CCO[C@@H](c4ccnc(C(F)(F)F)c4)C3)nc(-c3ccc(Cl)cc3F)c2c(=O)n1C [Example 266, (S)-5-(4-chloro-2-fluorophenyl)-2,3-dimethyl-7-(2-(2-(trifluoromethyl)pyridin-4-yl)morpholino)pyrido[4,3-d]pyrimidin-4(3H)-one]
++++ (Emax>300)	5.52 to 6.30	Cc1nc2cc(N3CCO[C@H]([C@@H]4CCO4)C3)nc(-c3ccc(Cl)cc3F)c2c(=O)n1C [Example 269, 5-(4-chloro-2-fluorophenyl)-2,3-dimethyl-7-((S)-2-((S)-oxetan-2-yl)morpholino)pyrido[4,3-d]pyrimidin-4(3H)-one]
+++ (Emax>200 and ≤300)	5.52 to 6.30	Cc1nc2cc(N3CCO[C@@H]([C@@H]4CCO4)C3)nc(-c3ccc(Cl)cc3F)c2c(=O)n1C [Example 270, 5-(4-chloro-2-fluorophenyl)-2,3-dimethyl-7-((R)-2-((S)-oxetan-2-yl)morpholino)pyrido[4,3-d]pyrimidin-4(3H)-one]
+++ (Emax>200 and ≤300)	6.30 to 7.30	Cc1nnc([C@H]2CN(c3cc4nc(C)n(C)c(=O)c4c(-c4ccc(Cl)cc4F)n3)CCO2)o1 [Example 271, (R)-5-(4-chloro-2-fluorophenyl)-2,3-dimethyl-7-(2-(5-methyl-1,3,4-oxadiazol-2-yl)morpholino)pyrido[4,3-d]pyrimidin-4(3H)-one]
